Source: publication PMC7608663, “Pharmacokinetic–pharmacodynamic modelling of the hypoglycaemic effect of pulsatile administration of human insulin in rats” (Scientific Reports, 2020)

Assays:
[1] = test system: INS receptors, rat soleus muscle cells; settings: fixed value in the IR model, read-out: dissociation constant (Kd); cited from earlier work
Excerpt: In the post-prandial state, the uptake of glucose from the blood in vivo mainly occurs in skeletal muscle, which expresses INS receptors. […] Although there are various kinds of skeletal muscle in the body, it would not be useful to individually model each receptor in all skeletal muscles, because this complicates the model. […] We assumed that SIG is equal to the value of Φ in this model. To evaluate the contribution of the translocation process to the hypoglycaemic effect, the GLUT4 translocation-based PK–PD model (GT model) was designed as follows:7 dG4A/dt=α∙CIns-C00-G4A/TAB, 8 dG4B/dt=G4A/TAB-G4B/TBA. || page 3: Parameters Estimated values Pharmacokinetic parameters k12 (min-1) 0.843 ± 0.25 k (min-1) 0.419 ± 0.073 21 k10 (min-1) 0.000314 ± 0.0079 Km (ng/kg) 1538 ± 624 Vmax (ng/kg/min) 3243 ± 649 Vc (mL/kg) 29.3 ± 6.6 Pharmacodynamic parameters of the IR model Kd (nmol/L) 2.062 FIX SC50IR (%) 7.60 ± 1.8 SmaxIR 3.01 ± 0.31 γ 2.25 ± 1.8 IR kGoutIR (min-1) 0.0208 ± 0.0018 Pharmacodynamic parameters of the GT model α 0.153 ± 0.56 T (min) 3 FIX AB TBA (min) 20 FIX SC50GT 100.22 ± 354 SmaxGT 2.58 ± 1.3 γGT 0.736 ± 0.11 kGoutGT (min-1) 0.141 ± 0.021 Supplementary Table S1. Pharmacokinetic and pharmaco ...

[2] = rat, in vivo, iv; SD
Protocol: Animal experiments were performed following the procedures as described earlier[26], with slight adaptations. In short, male Wistar rats (Japan SLC, Shizuoka, Japan) weighing 270–320 g were used in this study. Rats were housed in controlled environmental facilities (temperature: 24 ± 1 °C, humidity: 55% ± 10%) under a 12:12-h light–dark cycle (06:00 h/18:00 h) for more than 1 week and allowed free access to a standard diet and tap water. One day before the experiment, rats were anaesthetized with ethyl ether and implanted surgically with a phycon tube connected to a PE50 catheter in the jugular vein for drug administration and another phycon-PE50 catheter in the femoral vein for blood sampling. Both catheters were externalized through the back in the neck region and secured. Unless otherwise specified, all animal experiments were conducted without restraint or anaesthesia and in a fasted state. On the day of the experiment, each rat was housed in an individual cage and left alone for at least 1 h. INS was dissolved in a 0.1% bovine serum albumin solution. Pulsatile administration of INS was performed by repeated intravenous bolus injections at constant intervals of 6–60 min within 2 h (total dose: 0.5 IU/kg). As controls, a single bolus injection or 2-h infusion were also conducted at doses of 0.5 IU/kg and 0.25 IU/kg/h, respectively. INS (0.025–0.5 IU/kg) was intravenously injected to estimate PK and PD parameters. Blood samples (≤ 0.1 mL) were withdrawn from the femoral vein before and at designated times after dosing. The blood samples were transferred to heparinized tubes, then centrifuged (12,000 × g, 5 min). The isolated plasma was stored frozen at − 20 °C until analysis. Immunoreactive INS concentrations in plasma were determined using an enzyme-linked immunosorbent assay (ELISA) kit (Shibayagi, Gunma, Japan). The mutarotase glucose oxidase method kit (Wako Pure Chemical Industries, Osaka, Japan) was used to measure plasma glucose concentrations. […]
The concentration–time data were analysed by the nonlinear regression program FKDM[27]. […]

[3] = test system: plasma glucose concentration; test: Hypoglycaemic effect (plasma glucose) after intravenous INS, PK-PD indirect response modelling; format: in vivo, rat
Excerpt: An indirect response model was used to analyse the PK–PD relationship. The differential equation for the INS stimulus of the model is as follows:5 dGlc/dt=KGin-1+Smax∙SIG^γ/SC50^γ+SIG^γkGout∙Glc, where Glc is the plasma glucose concentration (mg/dL), SIG is the theoretical signal strength concerned with the hypoglycaemic effect of INS, Smax is the maximum effect, SC50 is the SIG producing 50% of Smax, r is Hill’s constant, KGin is the zero-order rate constant concerned with endogenous glucose production, and kGout is the first-order rate constant (min^−1) concerned with glucose elimination. Before INS is administered, the observed baseline level of Glc is maintained as G00 (105.12 mg/dL), which is determined by KGin = kGout.G00. Equation (5) can comprehensively express the mechanism of action of INS that is not assumed in the following model.
To assess the contribution of the receptor-binding process of INS to the hypoglycaemic effect, the INS receptor-based PK–PD model (IR model) was designed as follows:6 ϕ=CIns∙100/Kd+CIns-ϕ00.
We assumed that SIG is equal to the value of Φ in this model. To evaluate the contribution of the translocation process to the hypoglycaemic effect, the GLUT4 translocation-based PK–PD model (GT model) was designed as follows:7 dG4A/dt=α∙CIns-C00-G4A/TAB, 8 dG4B/dt=G4A/TAB-G4B/TBA. […]

Human recombinant INS (Humulin R)
Kd [1]: 2.06 nM | Km, Michaelis-Menten kinetic constant of elimination [2]: 1538 ± 624 ng/kg | Vc, volume of distribution for the central (plasma) INS compartment [2]: 0.0293 ± 0.0066 L/kg | Vmax, Michaelis-Menten kinetic constant of elimination [2]: 3243 ± 649 ng/kg/min | time required for the maximal hypoglycaemic effect ([3]; after single i.v. bolus administration, rats (Fig. 3)): about 20 min | area between the effect-time curve and the basal concentration (AUE), pulsatile administration compared with single bolus ([3]; total 0.5 IU/kg i.v. within 2 h, 2-20 pulses vs bolus 0.5 IU/kg, rats, depends on pulse rate, saturated above four injections, Dunnett's test, n = 3-4): significantly higher
